Test results published in patent US11926584B2, “Methods of making bempedoic acid and compositions of the same” (Esperion Therapeutics, Inc., priority 2019, dated 2024).

Experiments:
[1] = Dynamic vapor sorption (water sorption) of the crystalline form; format: physicochemical; conditions: relative humidity of 80%, temperature of 25° C., isotherm in FIG. 6
Protocol: The crystalline form of the compound of formula (V) may also be characterized according to its water sorption properties. […] In certain embodiments, the crystalline form of the compound of formula (V) has a water sorption isotherm, when measured at 25° C., substantially the same as shown in FIG. 6.

[2] = Thermogravimetric analysis (TGA) of the crystalline form; format: physicochemical; conditions: heated at 10° C./minute from ambient (~25° C.) to about 315° C., open platinum pans
Protocol: Thermogravimetric analysis (TGA) data for the crystalline form of the compound of formula (V) were collected using a TA Discovery 550 TGA instrument. The TGA instrument was calibrated using a nickel reference standard. Samples of the crystalline form of the compound of formula (V) were placed in open platinum sample pans and heated at a rate of 10° C./minute from about ambient temperature (˜25° C.) to about 315° C.

- change in mass, as determined by dynamic vapor sorption [1]: about 0.03%
SMILES: CC(C)(CCCCCC(O)CCCCCC(C)(C)C(=O)O)C(=O)O [compound of formula (V), 8-hydroxy-2,2,14,14-tetramethylpentadecanedioic acid]
- weight loss in TGA curve [2]: negligible weight loss prior to decomposition
